From article PMC7578299, “The antiviral effects of baloxavir marboxil against influenza A virus infection in ferrets” (Influenza and Other Respiratory Viruses, 2020)

How the values were obtained:
Assay type in all cases: in vitro ADME
[1] = Metabolic stability in liver microsomes, human; conditions: 2 μmol/L, pH 7.4
Description: (§1) Liver microsomes were prepared from ferrets, rats, dogs, and monkeys, as previously described. ^28 Human liver microsomes were obtained from Sekisui‐XenoTech, LLC and pooled (n = 15). Metabolic stability of the compounds in liver microsomes was tested in duplicate. Oseltamivir and cefcapene pivoxil were used as reference compounds. Liver microsomes at 0.5 mg/mL concentration (final volume of 0.2 mL) were incubated in Tris‐HCl buffer (pH 7.4), containing 50 mmol/L Tris‐HCl, 150 mmol/L KCl, 10 mmol/L MgCl2. The hydrolysis reaction was initiated by applying the test compound solution (final concentration 2 μmol/L). After incubation for 10, 20, and 30 minutes at 37°C, the hydrolysis was terminated by the addition of twofold volume of ice‐cold acetonitrile/methanol (1:1, v/v). Samples were centrifuged at 3000 rpm for 10 minutes prior to LC‐MS/MS analysis of compounds in the supernatants.

[2] = Metabolic stability in liver microsomes, ferret; conditions: for % Residual in liver microsome: ferret, 2 μmol/L, pH 7.4
Description: as §1

[3] = Metabolic stability in liver microsomes, rat; conditions: for % Residual in liver microsome: 2 μmol/L, pH 7.4
Description: as §1

[4] = Metabolic stability in liver microsomes, dog; conditions: for % Residual in liver microsome: 2 μmol/L, pH 7.4
Description: as §1

[5] = Metabolic stability in liver microsomes, monkey; conditions: for % Residual in liver microsome: monkey, 2 μmol/L, pH 7.4
Description: as §1

[6] = Metabolic stability test, control (microsome free); conditions: 2 μmol/L, pH 7.4
Description: as §1

Q: Which “% Residual in liver microsome” value ([1]; 10 min) does the source give for `CCOC(=O)C1=C[C@@H](OC(CC)CC)[C@H](NC(C)=O)[C@@H](N)C1` [OSP, oseltamivir phosphate] here?
A: Its value is 89.8%.

Q: What about the “% Residual in liver microsome” value ([1]; 20 min) of the same compound?
A: The value was 64.8%.

Q: What about the “% Residual in liver microsome” value ([1]; 30 min) of the same compound?
A: Its value is 49.7%.

Q: What about the “% Residual in liver microsome” value ([2]; 10 min) of the same compound?
A: Its value is 106.5%.

Q: What about the “% Residual in liver microsome” value ([2]; 20 min) of the same compound?
A: The value was 107.2%.

Q: What about the “% Residual in liver microsome” value ([2]; 30 min) of the same compound?
A: The value was 109.0%.

Q: What about the “stability in liver microsomes (in words)” value ([2]; microsomes) of the same compound?
A: The value was “stable”.

Q: What about the “% Residual in liver microsome” value ([3]; 10 min) of the same compound?
A: Its value is 110.8%.

Q: And the “% Residual in liver microsome” value ([3]; 20 min)?
A: Its value is 119.2%.

Q: And the “% Residual in liver microsome” value ([3]; 30 min)?
A: The value was 117.3%.

Q: And the “stability in liver microsomes (in words)” value ([3]; microsomes)?
A: The value was “stable”.

Q: What about the “% Residual in liver microsome” value ([4]; 10 min) of the same compound?
A: Its value is 115.8%.

Q: And the “% Residual in liver microsome” value ([4]; 20 min)?
A: The value was 109.6%.

Q: And the “% Residual in liver microsome” value ([4]; 30 min)?
A: The value was 110.5%.

Q: What about the “stability in liver microsomes (in words)” value ([4]; microsomes) of the same compound?
A: The value was “stable”.

Q: And the “% Residual in liver microsome” value ([5]; 10 min)?
A: Its value is 73.6%.

Q: What about the “% Residual in liver microsome” value ([5]; 20 min) of the same compound?
A: Its value is 59.1%.

Q: What about the “% Residual in liver microsome” value ([5]; 30 min) of the same compound?
A: Its value is 45.2%.

Q: What about the “% Residual, Control (Microsome free)” value ([6]; 10 min) of the same compound?
A: The value was 106.4%.

Q: And the “% Residual, Control (Microsome free)” value ([6]; 20 min)?
A: Its value is 105.4%.

Q: And the “% Residual, Control (Microsome free)” value ([6]; 30 min)?
A: The value was 111.3%.

Q: For `CC/C=C(\C(=O)N[C@@H]1C(=O)N2C(C(=O)OCOC(=O)C(C)(C)C)=C(COC(N)=O)CS[C@H]12)c1csc(N)n1.Cl` [Cefcapene pivoxil, cefcapene pivoxil hydrochloride], which “% Residual in liver microsome Individual value” [5] is on record?
A: The value was 0.0%.
